Key:
[1] = Half-life of native and glycosylated GLP-1 isoforms in rats; conditions: anesthetized male Wistar rats, i.v. bolus 20 nmol/kg; for half-life t1/2 in circulation: n = 8 per group, total GLP-1 in plasma (assay against amidated C-terminus: intact 7–36 amide and metabolites), one-phase decay, linear model on ln-transformed data; for detectability in circulation after injection (in words): total GLP-1 assay, plasma sampled up to 60 min
Experimental: Male Wistar rats (≈250 g) were obtained from Janvier (Saint Berthevin Cedex, France) and housed in pairs under standard conditions with ad libitum access to chow and water. Rats were acclimatized for at least 1 week before the study. Studies were carried out on two occasions, matching on each occasion the number of rats in each group, while at the same time avoiding rats from the same cage receiving the same test solution. […] On the day of study, non-fasted rats were anesthetized by a subcutaneous injection with Hypnorm/Midazolam (0.3 ml per 100 g body weight) and placed on a heated operating table (37 °C). The abdominal cavity was opened by a midline incision and a plastic catheter was inserted in the portal vein. Blood was collected (∼300 µl per timepoint) through the catheter into ice cold EDTA-coated tubes that were immediately placed one ice. Samples were collected at timepoint −5, 0, 1, 2, 5, 10, 15, 25, 45, and 60 min. In between samples, ∼200 µL PBS were injected to flush the catheter and replace lost fluid. […] At end of study, rats were sacrificed by diaphragm perforation.
Only data points represented by n > 4 were included in the analysis. To test the difference in rate constant (k), a multiple linear model (lm) was fitted to the pooled data with glycoform set as interaction (lm, Concentration ∼ Timepoint * Glycoform).

[2] = intact GLP-1 (7–36 amide); cited from earlier work
[3] = target: T1, neprilysin (NEP) (Homo sapiens, UniProt P08473); test: In vitro degradation by neprilysin, MALDI-TOF timecourse assay; format: in vitro ADME; conditions: sialylated ST O-glycan structure, 15 µM peptide, 37 °C, pH 9.0, NEP 20 ng/μL (PYY), 150 pg/μL (GAL)
T1 construct: purchased R&D Systems
Experimental: Recombinant protease assays were performed in a MALDI-TOF timecourse assay. […] The amount of enzyme used was optimized to fully digest the non-glycosylated peptide hormone of interest within 1 h of incubation.
MALDI-TOF-MS was performed in linear positive mode on a Bruker Autoflex instrument (Bruker Daltonik GmbH, Bremen, Germany) by mixing the quenched aliquots with a saturated solution of α-Cyano-4-hydroxycinnamic acid in ACN/H2O/TFA (70:30:0.1) at a 1:1 ratio on a target steel plate.

[4] = tested on: dipeptidyl peptidase IV (DPP-IV); test: DPP-IV (R&D Systems) in 50 mM Tris, pH 8.0; conditions: 37 °C, up to 24 h
[5] = tested on: neprilysin (NEP); test: NEP (R&D Systems) in 50 mM Tris, 0.05% Brij-35, pH 9.0; conditions: 37 °C, up to 24 h
[6] = cited from earlier work

T1 sequence (P08473 whole entry, species assumed): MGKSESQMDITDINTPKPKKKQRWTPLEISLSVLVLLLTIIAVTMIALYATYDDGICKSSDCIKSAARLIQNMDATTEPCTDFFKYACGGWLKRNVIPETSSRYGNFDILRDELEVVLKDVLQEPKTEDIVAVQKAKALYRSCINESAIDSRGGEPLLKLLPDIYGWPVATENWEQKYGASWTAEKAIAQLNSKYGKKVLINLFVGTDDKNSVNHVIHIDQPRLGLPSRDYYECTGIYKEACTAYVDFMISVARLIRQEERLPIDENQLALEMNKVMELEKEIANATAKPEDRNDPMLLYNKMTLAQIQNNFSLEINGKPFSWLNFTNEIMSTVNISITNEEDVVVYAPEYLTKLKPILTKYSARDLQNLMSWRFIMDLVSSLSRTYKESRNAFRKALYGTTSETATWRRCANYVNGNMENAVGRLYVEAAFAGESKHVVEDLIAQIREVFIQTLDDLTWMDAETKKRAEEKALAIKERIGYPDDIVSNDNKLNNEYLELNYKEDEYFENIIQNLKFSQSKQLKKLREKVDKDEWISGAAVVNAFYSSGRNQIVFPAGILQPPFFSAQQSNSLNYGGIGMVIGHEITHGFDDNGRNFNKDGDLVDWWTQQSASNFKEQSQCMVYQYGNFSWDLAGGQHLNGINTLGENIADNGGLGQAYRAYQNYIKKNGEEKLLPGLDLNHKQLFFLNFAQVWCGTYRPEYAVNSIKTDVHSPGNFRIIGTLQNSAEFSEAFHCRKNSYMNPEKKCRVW

| Molecule | half-life t1/2 in circulation [1] [min] | detectability in circulation after injection (in words) [1] | not cleaved [5] | further results |
| --- | --- | --- | --- | --- |
| CC[C@H](C)[C@H](NC(=O)[C@H](Cc1ccccc1)NC(=O)[C@H](CCC(=O)O)NC(=O)[C@H](CCCCN)NC(=O)[C@H](C)NC(=O)[C@H](C)NC(=O)[C@H](CCC(N)=O)NC(=O)CNC(=O)[C@H](CCC(=O)O)NC(=O)[C@H](CC(C)C)NC(=O)[C@H](Cc1ccc(O)cc1)NC(=O)[C@H](CO)NC(=O)[C@H](CO)NC(=O)[C@@H](NC(=O)[C@H](CC(=O)O)NC(=O)[C@H](CO)NC(=O)[C@@H](NC(=O)[C@H](Cc1ccccc1)NC(=O)[C@@H](NC(=O)CNC(=O)[C@H](CCC(=O)O)NC(=O)[C@H](C)NC(=O)[C@@H](N)Cc1c[nH]cn1)[C@@H](C)O)[C@@H](C)O[C@H]1O[C@H](CO)[C@H](O)[C@H](O[C@@H]2O[C@H](CO)[C@H](O)[C@H](O[C@]3(C(=O)O)C[C@H](O)[C@@H](NC(C)=O)[C@H]([C@H](O)[C@H](O)CO)O3)[C@H]2O)[C@H]1NC(C)=O)C(C)C)C(=O)N[C@@H](C)C(=O)N[C@@H](Cc1c[nH]c2ccccc12)C(=O)N[C@@H](CC(C)C)C(=O)N[C@H](C(=O)N[C@@H](CCCCN)C(=O)NCC(=O)N[C@@H](CCCNC(=N)N)C(N)=O)C(C)C [GLP-1 ST] | 22.7 | readily detectable in circulation even after 60 min | – | – |
| CC[C@H](C)[C@H](NC(=O)[C@H](Cc1ccccc1)NC(=O)[C@H](CCC(=O)O)NC(=O)[C@H](CCCCN)NC(=O)[C@H](C)NC(=O)[C@H](C)NC(=O)[C@H](CCC(N)=O)NC(=O)CNC(=O)[C@H](CCC(=O)O)NC(=O)[C@H](CC(C)C)NC(=O)[C@H](Cc1ccc(O)cc1)NC(=O)[C@H](CO)NC(=O)[C@H](CO)NC(=O)[C@@H](NC(=O)[C@H](CC(=O)O)NC(=O)[C@H](CO)NC(=O)[C@@H](NC(=O)[C@H](Cc1ccccc1)NC(=O)[C@@H](NC(=O)CNC(=O)[C@H](CCC(=O)O)NC(=O)[C@H](C)NC(=O)[C@@H](N)Cc1c[nH]cn1)[C@@H](C)O)[C@@H](C)O)C(C)C)C(=O)N[C@@H](C)C(=O)N[C@@H](Cc1c[nH]c2ccccc12)C(=O)N[C@@H](CC(C)C)C(=O)N[C@H](C(=O)N[C@@H](CCCCN)C(=O)NCC(=O)N[C@@H](CCCNC(=N)N)C(N)=O)C(C)C [GLP-1, glucagon-like peptide 1, reference compound] | 2.7 | undetectable after the 15 min timepoint | – | half-life in circulation, literature [2]: ~ 2 min |
| CC(=O)N[C@H]1[C@@H](OC[C@H](NC(=O)[C@H](Cc2ccccc2)NC(=O)[C@H](CO)NC(=O)[C@H](CCCNC(=N)N)NC(=O)[C@H](Cc2c[nH]cn2)NC(=O)[C@H](CC(N)=O)NC(=O)CNC(=O)[C@@H](NC(=O)[C@H](C)NC(=O)[C@H](Cc2c[nH]cn2)NC(=O)[C@@H]2CCCN2C(=O)CNC(=O)[C@H](CC(C)C)NC(=O)[C@H](CC(C)C)NC(=O)[C@H](Cc2ccc(O)cc2)NC(=O)CNC(=O)[C@H](C)NC(=O)[C@H](CO)NC(=O)[C@H](CC(N)=O)NC(=O)[C@H](CC(C)C)NC(=O)[C@@H](NC(=O)[C@H](Cc2c[nH]c3ccccc23)NC(=O)CN)[C@@H](C)O)C(C)C)C(=O)N[C@@H](CC(=O)O)C(=O)N[C@@H](CCCCN)C(=O)N[C@@H](CC(N)=O)C(=O)NCC(=O)N[C@@H](CC(C)C)C(=O)N[C@H](C(=O)N[C@@H](CO)C(=O)O)[C@@H](C)O)O[C@H](CO)[C@H](O)[C@@H]1O[C@@H]1O[C@H](CO)[C@H](O)[C@H](O[C@]2(C(=O)O)C[C@H](O)[C@@H](NC(C)=O)[C@H]([C@H](O)[C@H](O)CO)O2)[C@H]1O [Galanin ST] | – | – | – | full-length peptide after incubation with NEP (in words) [3]: readily detectable after 24 h |
| HAEGTFTSDVSSYLEGQAAKEFIAWLVKGR | – | – | −: not susceptible to degradation | not cleaved [4]: −: not susceptible to degradation; fragment found [6]: 9–36 amide, major |
| HSDAVFTDNYTRLRKQMAVKKYLNSILN | – | – | −: not susceptible to degradation | – |
| HSDGTFTSELSRLREGARLQRLLQGLV | – | – | −: not susceptible to degradation | – |

From PMC7441158 (Nature Communications, 2020)
